Source: patent publication US20110288052A1, “NOVEL COMPOUNDS, PHARMACEUTICAL COMPOSITIONS CONTAINING SAME, AND METHODS OF USE FOR SAME” (priority 2008, published 2011)

Biological target: T1, Human FAS purified from ZR-75-1 human breast cancer cells (Homo sapiens, UniProt P49327)
T1 construct: Human FAS was purified from cultured ZR-75-1 human breast cancer cells; endogenous in cells; host or cells: ZR-75-1 human breast cancer cells (ATCC); enzyme purified by hypotonic lysis, PEG precipitation and Mono Q anion exchange
Test: FAS enzymatic activity (malonyl-CoA dependent NADPH oxidation)
Assay type: biochemical
Conditions: (SB)
Description: Purification of FAS from ZR-75-1 Human Breast Cancer Cells. Human FAS was purified from cultured ZR-75-1 human breast cancer cells obtained from the American Type Culture Collection. The procedure, adapted from Linn et al., 1981, and Kuhajda et al., 1994, utilizes hypotonic lysis, successive polyethyleneglycol (PEG) precipitations, and anion exchange chromatography. ZR-75-1 cells are cultured at 37° C. with 5% CO2 in RPMI culture medium with 10% fetal bovine serum, penicillin and streptomycin.
Ten T150 flasks of confluent cells are lysed with 1.5 ml lysis buffer (20 mM Tris-HCl, pH 7.5, 1 mM EDTA, 0.1 mM phenylmethanesulfonyl fluoride (PMSF), 0.1% Igepal CA-630) and bounce homogenized on ice for 20 strokes. […] FAS protein concentration is determined using the Coomassie Plus Protein Assay Reagent (Pierce) according to manufacturer's specifications using BSA as a standard. […]
Measurement of FAS Enzymatic Activity and Determination of the IC50 of the Compounds FAS activity is measured by monitoring the malonyl-CoA dependent oxidation of NADPH spectrophotometrically at OD340 in 96-well plates (Dils et al and Arslanian et al, 1975). […]
The assay is performed on a Molecular Devices SpectraMax Plus Spectrophotometer. […] The plate is read again as above with the kinetic protocol to measure the malonyl-CoA dependent NADPH oxidation. […]

T1 sequence (P49327 2-2511 limits assumed): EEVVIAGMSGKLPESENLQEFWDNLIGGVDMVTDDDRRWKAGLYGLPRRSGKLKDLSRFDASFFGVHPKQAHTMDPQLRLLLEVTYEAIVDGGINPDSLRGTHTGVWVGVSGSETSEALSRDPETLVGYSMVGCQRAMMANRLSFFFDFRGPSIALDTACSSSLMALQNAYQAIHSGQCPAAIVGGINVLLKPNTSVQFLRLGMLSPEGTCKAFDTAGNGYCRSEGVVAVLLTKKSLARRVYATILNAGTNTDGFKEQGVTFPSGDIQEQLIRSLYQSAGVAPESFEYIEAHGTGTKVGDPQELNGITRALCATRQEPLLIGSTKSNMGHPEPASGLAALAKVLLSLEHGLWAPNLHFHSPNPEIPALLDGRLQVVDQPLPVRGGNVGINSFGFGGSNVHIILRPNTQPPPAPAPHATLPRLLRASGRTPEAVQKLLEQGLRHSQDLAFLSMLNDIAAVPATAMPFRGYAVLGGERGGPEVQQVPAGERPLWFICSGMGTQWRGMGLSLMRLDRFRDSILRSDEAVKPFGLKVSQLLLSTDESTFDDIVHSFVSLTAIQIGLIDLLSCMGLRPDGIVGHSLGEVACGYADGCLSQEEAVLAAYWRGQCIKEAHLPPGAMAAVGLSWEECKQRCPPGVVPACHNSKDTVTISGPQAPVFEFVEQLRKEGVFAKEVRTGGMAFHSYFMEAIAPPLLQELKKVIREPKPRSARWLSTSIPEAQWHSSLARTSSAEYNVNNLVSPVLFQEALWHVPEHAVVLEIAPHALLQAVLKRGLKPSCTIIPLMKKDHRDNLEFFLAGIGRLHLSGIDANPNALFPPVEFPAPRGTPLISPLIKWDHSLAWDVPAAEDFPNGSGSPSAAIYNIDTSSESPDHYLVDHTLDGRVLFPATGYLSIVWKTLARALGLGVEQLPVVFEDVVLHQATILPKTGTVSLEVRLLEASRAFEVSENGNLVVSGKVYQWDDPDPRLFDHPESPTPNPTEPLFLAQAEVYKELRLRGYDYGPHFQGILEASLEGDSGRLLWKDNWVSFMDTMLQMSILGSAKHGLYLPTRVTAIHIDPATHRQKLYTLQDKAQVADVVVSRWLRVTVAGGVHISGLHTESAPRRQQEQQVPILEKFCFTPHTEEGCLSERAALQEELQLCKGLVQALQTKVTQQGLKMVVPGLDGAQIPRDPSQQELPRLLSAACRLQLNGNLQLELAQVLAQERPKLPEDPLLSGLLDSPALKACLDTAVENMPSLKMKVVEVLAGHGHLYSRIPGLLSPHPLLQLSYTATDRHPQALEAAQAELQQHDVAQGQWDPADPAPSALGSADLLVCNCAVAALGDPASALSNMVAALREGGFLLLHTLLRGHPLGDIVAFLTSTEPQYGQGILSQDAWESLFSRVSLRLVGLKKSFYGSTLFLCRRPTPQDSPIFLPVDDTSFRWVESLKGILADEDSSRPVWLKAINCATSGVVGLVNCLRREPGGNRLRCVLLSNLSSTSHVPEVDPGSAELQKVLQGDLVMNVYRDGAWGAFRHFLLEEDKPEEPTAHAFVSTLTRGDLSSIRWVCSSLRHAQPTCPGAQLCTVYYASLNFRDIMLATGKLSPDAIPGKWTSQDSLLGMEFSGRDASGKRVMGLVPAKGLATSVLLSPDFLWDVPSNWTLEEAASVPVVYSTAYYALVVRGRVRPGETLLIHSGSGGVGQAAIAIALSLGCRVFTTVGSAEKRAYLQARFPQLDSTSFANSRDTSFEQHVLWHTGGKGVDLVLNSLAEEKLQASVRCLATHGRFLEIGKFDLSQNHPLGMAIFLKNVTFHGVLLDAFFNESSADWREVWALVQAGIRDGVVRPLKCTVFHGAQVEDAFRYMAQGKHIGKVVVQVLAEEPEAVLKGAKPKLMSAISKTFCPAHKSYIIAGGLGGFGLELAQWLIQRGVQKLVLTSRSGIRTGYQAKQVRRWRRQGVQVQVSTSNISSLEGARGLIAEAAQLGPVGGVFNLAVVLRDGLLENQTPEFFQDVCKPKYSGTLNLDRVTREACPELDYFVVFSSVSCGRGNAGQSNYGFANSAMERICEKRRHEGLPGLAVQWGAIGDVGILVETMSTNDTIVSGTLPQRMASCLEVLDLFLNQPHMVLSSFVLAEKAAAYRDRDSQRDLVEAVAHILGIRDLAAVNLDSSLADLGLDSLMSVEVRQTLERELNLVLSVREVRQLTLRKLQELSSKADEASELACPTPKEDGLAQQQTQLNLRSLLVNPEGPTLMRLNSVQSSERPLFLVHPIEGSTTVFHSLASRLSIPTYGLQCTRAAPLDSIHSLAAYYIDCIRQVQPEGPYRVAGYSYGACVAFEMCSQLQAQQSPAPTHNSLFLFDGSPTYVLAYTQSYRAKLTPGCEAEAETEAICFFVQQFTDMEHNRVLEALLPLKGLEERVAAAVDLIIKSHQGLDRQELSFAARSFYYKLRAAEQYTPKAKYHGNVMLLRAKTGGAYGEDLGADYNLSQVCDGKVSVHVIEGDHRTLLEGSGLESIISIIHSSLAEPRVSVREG

Row | Structure (SMILES) | IC50 [µM] | FAS (IC50)
1 | CCCCCCCCC1(C)SC(=O)C=C1OCC(=O)Nc1ccc(Cl)cc1 (centres unmarked) | 266 | –
2 | CCCCCCCCC1(C)SC(=O)C=C1OCC(=O)Nc1ccc(Cl)cc1Cl (centres unmarked) | – | Neg (SB)
